Experimental data published in paper PMC11546339, “Conformational Plasticity Enhances the Brain Penetration of a Metabolically Stable, Dual-Functional Opioid-Peptide CycloAnt” (International Journal of Molecular Sciences, 2024).
Where a SMILES comes first, the peptide text is derived from it. Bridges are numbered along the chain shown (N, C = ends). [ ]: non-standard residue; d: D form. 2Abz = Nc1ccccc1C(=O)O; Dap = NC[C@H](N)C(=O)O

How the values were obtained:
Stability in mouse serum = type: in vitro ADME; settings: 37 °C, read-out: percentage of CycloAnt remaining in mouse serum
Protocol: Proteolytic instability is a major hurdle limiting the development of peptide drug. As blood is a major source of proteases that degrade peptides, we evaluated the stability of CycloAnt in mouse serum. CycloAnt at a final concentration of 20 µM was incubated with mouse serum (SigmaAldrich) at 37 °C for 8 h. At 0, 15, 30, 60, 120, 240, and 480 min, the incubation was terminated by adding 2 volumes of ice-cold acetonitrile to precipitate the proteins in the sample. After centrifugation at 10,000 rpm, supernatant was collected. The processed sample was analyzed by liquid chromatography tandem mass spectrometry (LC-MS/MS). The percentage of CycloAnt remaining at each time point was calculated (Figure 1).
Stability in mouse serum. CycloAnt was dissolved in pH 7.2 phosphate buffer saline (PBS). A total of 175 µL of CycloAnt at a final concentration of 20 µM was mixed with 2.625 mL of 100% mouse serum (SigmaAldrich) and incubated at 37 °C. The mixture was analyzed over a time course of 8 h. At the time points of 0, 15, 30, 60, 120, 240, and 480 min, 150 µL of sample were withdrawal and the reaction was terminated with 300 μL of ice-cold acetonitrile containing internal standard (IS, Tyr-[D-Lys-Phe-Tyr-Gly] at 200 ng/mL). The mixture was centrifuged at 10,000 rpm at 4 °C for 10 min. […] The percentage of peptide remaining at each time point was calculated relative to 0 min. […]

[1] = Metabolism by CYP450 in mouse liver microsomes (NADPH); type: in vitro ADME; settings: 3.07 μM, 0.5 mg/mL microsomes, 1 mM NADPH, 37 °C, 120 min
Protocol: The metabolic stability of CycloAnt was then evaluated in mouse liver microsomes. CycloAnt at a final concentration of 3.07 μM was mixed with 0.5 mg/mL liver microsomes in the presence of 1 mM of NADPH and incubated at 37 °C for 2 h. At 0, 5, 15, 30, 60, and 120 min, incubation mixtures were withdrawn and processed. The supernatant was analyzed by LC-MS/MS. The percentage of CycloAnt remaining at each time point was calculated (Figure 3a).
Metabolism by CYP450 in liver microsomes. CycloAnt dissolved in pH 7.2 PBS was diluted to 8 μM. Six hundred microliters of CycloAnt were incubated with 800 μL of 0.975 mg/mL mouse liver microsomes and 160 μL of 10 mM NADPH at 37 °C for 0, 5, 15, 30, 60, and 120 min. The final concentrations of CycloAnt, mouse liver microsomes, and NADPH in the incubation mixture were 3.07 μM, 0.5 mg/mL, and 1 mM, respectively. At the designated time points, 100 μL of the incubation mixture were withdrawn and mixed with 200 μL ice-cold acetonitrile containing internal standard (IS, Tyr-[D-Lys-Phe-Tyr-Gly]), followed by centrifugation at 10,000× g at 4 °C for 10 min. An aliquot of 250 μL of supernatant was collected and dried in vacuum. The dried sample was reconstituted in 100 μL of 20% acetonitrile and stored at −20 °C before analyzed by LC-MS/MS on the next day. The experiment was performed in duplicate.

With `C[C@@H](O)[C@@H]1NC(=O)[C@H](CNC(=O)c2ccccc2N)NC(=O)[C@H](NC(=O)[C@@H](N)Cc2ccc(O)cc2)CCCCNC(=O)CNC1=O` [CycloAnt] (H-Y[dK][Dap](2Abz)TG; lactam 2-C) the remaining at 8 h, 20 µM (Stability in mouse serum) was 82.3% and the “stability in mouse liver microsomes with NADPH (CYP450)” value [1] was “no significant concentration change”.
